The target in data set [1] is T1, human ORL1 receptor (Homo sapiens, UniProt P41146).
T1 construct: purchased PerkinElmer; host or cells: HEK-293 (transfected), membranes
As to the kind of experiment: ORL1-receptor binding assay. The note with it: [3H]nociceptin, human ORL1 receptor transfected HEK-293 cell membranes; read-out: Ki value with regard to binding affinity for the ORL1 receptor. As for the experimental part: The human ORL1 receptor transfected HEK-293 cell membranes (PerkinElmer) were incubated for 45 min at room temperature with 0.4 nM [^3H]nociceptin, 1.0 mg of wheat germ agglutinin (WGA)-coated SPA beads and various concentrations of test compounds in a final volume of 200 μL of 50 mM HEPES buffer pH 7.4 containing 10 mM MgCl2 and 1 mM EDTA. Non-specific binding (NSB) was determined by the addition of 1 μM unlabeled nociceptin. After the reaction, the assay plate was centrifuged at 1,000 rpm for 1 min and then the radioactivity was measured by WALLAC 1450 MicroBeta Trilux.

Data set [2] has as its target T2, HERG type potassium channel (Homo sapiens, UniProt Q12809).
T2 construct: expressed in transfected cells; host or cells: HEK-293 cells expressing HERG; membrane homogenate
The format is binding. As for the experimental part: Cell paste of HEK-293 cells expressing the HERG product can be suspended in 10-fold volume of 50 mM Tris buffer adjusted at pH 7.5 at 25° C. with 2 M HCl containing 1 mM MgCl2, 10 mM KCl. The cells were homogenized using a Polytron homogenizer (at the maximum power for 20 seconds) and centrifuged at 48,000 g for 20 min at 4° C. The pellet was resuspended, homogenized and centrifuged once more in the same manner. The resultant supernatant was discarded and the final pellet was resuspended (10-fold volume of 50 mM Tris buffer) and homogenized at the maximum power for 20 sec. The membrane homogenate was aliquoted and stored at −80° C. until use. Analiquot was used for protein concentration determination using a Protein Assay Rapid Kit and ARVO SX plate reader (Wallac). […] Saturation was determined by incubating 20 μL of [^3H]-dofetilide and 160 μl of membrane homogenates (20-30 μg protein per well) for 60 min at room temperature in the absence or presence of 10 μM dofetilide at final concentrations (20 μL) for total or nonspecific binding, respectively. […] Receptor-bound radioactivity was quantified by liquid scintillation counting using Packard LS counter.
For the competition assay, compounds were diluted in 96 well polypropylene plates as 4-point dilutions in semi-log format. […] Receptor-bound radio activity was quantified by counting Wallac MicroBeta plate counter.

Where a name gives a salt, the structure may show the parent alone.

T1 sequence (P41146 whole entry): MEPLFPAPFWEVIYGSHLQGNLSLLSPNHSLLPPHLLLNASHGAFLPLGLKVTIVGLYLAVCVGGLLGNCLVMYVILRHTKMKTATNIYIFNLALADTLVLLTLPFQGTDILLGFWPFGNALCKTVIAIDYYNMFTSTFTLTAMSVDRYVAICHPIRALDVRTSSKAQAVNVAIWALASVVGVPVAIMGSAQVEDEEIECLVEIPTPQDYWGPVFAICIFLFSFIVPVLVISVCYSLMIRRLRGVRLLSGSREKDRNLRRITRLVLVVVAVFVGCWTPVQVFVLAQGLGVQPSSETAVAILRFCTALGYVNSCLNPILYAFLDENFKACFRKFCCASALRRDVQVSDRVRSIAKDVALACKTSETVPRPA
T2 sequence (Q12809 whole entry): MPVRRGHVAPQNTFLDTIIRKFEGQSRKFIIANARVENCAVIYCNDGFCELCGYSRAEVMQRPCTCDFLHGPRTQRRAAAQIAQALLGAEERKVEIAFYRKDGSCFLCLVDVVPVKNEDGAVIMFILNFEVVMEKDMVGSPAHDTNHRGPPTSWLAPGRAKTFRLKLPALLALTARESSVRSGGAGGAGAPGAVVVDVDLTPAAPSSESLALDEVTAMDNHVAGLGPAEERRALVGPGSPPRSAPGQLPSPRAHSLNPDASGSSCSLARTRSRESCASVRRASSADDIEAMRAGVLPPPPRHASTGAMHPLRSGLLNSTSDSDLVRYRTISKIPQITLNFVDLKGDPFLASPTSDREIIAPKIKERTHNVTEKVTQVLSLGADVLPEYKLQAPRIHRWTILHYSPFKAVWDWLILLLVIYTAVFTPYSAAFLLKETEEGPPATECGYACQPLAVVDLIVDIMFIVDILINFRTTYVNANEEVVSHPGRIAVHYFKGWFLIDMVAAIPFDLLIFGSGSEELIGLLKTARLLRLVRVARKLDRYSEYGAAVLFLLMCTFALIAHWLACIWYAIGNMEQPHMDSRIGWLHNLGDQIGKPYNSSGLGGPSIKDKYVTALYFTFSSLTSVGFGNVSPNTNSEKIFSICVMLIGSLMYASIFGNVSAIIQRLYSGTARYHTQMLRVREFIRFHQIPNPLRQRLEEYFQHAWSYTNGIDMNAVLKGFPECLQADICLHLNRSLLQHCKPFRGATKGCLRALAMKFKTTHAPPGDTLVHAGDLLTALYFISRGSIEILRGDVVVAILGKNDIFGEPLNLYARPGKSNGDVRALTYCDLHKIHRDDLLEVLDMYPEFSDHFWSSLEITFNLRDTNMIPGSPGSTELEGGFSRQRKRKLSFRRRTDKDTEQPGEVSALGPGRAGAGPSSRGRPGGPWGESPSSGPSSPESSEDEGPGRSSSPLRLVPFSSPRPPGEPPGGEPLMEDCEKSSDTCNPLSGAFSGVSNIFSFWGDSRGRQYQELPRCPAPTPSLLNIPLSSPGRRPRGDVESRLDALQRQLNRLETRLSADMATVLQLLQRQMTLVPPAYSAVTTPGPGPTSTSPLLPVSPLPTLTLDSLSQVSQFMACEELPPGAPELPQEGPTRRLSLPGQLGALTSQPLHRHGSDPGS

In general, Ki refers to a measure of affinity in units of concentration, obtained from inhibition or displacement. Turning to `CN(C)C(=O)C(Cc1cscn1)CN1CCC2(CC1)OCc1ccc(F)cc12` (single isomer, unassigned; (-)) [Example 92, (−)-3-(6-FLUORO-1′H,3H-SPIRO[2-BENZOFURAN-1,4′-PIPERIDIN]-1′-YL)-N,N-DIMETHYL-2-(1,3-THIAZOL-4-YLMETHYL)P[…], CITRATE], in data set [1], the Ki worked out at 5 nM.

`CN(C)C(=O)C(CN1CCC2(CC1)OCc1ccc(F)cc12)Cn1cccn1` (single isomer, unassigned; (-)) [Example 102, (−)-3-(6-FLUORO-1′H,3H-SPIRO[2-BENZOFURAN-1,4′-PIPERIDIN]-1′-YL)-N,N-DIMETHYL-2-(1H-PYRAZOL-1-YLMETHYL)P[…], CITRATE]: the inhibitory constant (Ki) in data set [1] was 12 nM.

With `CN1C(=O)C(CN2CCC3(CCc4ccccc43)CC2)Cc2ccccc21` (stereo not drawn) [Compound (i)], in data set [2], the “activity in the dofetilide binding assay” value was “potent activity”.

(Values after patent publication US7354925B2, “Alpha aryl or heteroaryl methyl beta piperidino propanamide compounds as ORL1-receptor antagonists” (Pfizer Inc., priority 2004, dated 2008).)
